Measurements from patent publication US6737383B1, “Herbicidal oxadiazolidines” (priority 1999, dated 2004).

Key:
[1] = test system: bedstraw; assay: Test B pre/postemergence bedstraw; format: in vivo, Galium aparine; conditions: Postemergence
Outline: (§1)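 Test chemicals in a non-phytotoxic solvent mixture with surfactant were sprayed preemergence onto planted seeds and postemergence onto plants 2 to 18 cm tall (1- to 4-leaf stage). After twelve to sixteen days in a greenhouse, injury was visually rated against untreated controls from 0 (no effect) to 10 (complete control).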

[2] = test system: blackgrass; assay: Test B pre/postemergence blackgrass; format: in vivo, Alopecurus myosuroides
Outline: as §1

[3] = test system: surinam grass; assay: Test B pre/postemergence surinam grass; format: in vivo, Brachiaria decumbens
Outline: as §1

[4] = test system: cocklebur; assay: Test B pre/postemergence cocklebur; format: in vivo, Xanthium strumarium
Outline: as §1

[5] = test system: corn; assay: Test B pre/postemergence corn; format: in vivo, Zea mays
Outline: as §1

[6] = test system: crabgrass; assay: Test B pre/postemergence crabgrass; format: in vivo, Digitaria sanguinalis
Outline: as §1

[7] = test system: giant foxtail; assay: Test B pre/postemergence giant foxtail; format: in vivo, Setaria faberii
Outline: as §1

[8] = test system: morningglory; assay: Test B pre/postemergence morningglory; format: in vivo, Ipomoea hederacea
Outline: as §1

[9] = test system: pigweed; assay: Test B pre/postemergence pigweed; format: in vivo, Amaranthus retroflexus
Outline: as §1

[10] = test system: rape; assay: Test B pre/postemergence rape; format: in vivo, Brassica napus
Outline: as §1

[11] = test system: soybean; assay: Test B pre/postemergence soybean; format: in vivo, Glycine max
Outline: as §1

[12] = test system: sugar beet; assay: Test B pre/postemergence sugar beet; format: in vivo, Beta vulgaris
Outline: as §1

[13] = test system: velvetleaf; assay: Test B pre/postemergence velvetleaf; format: in vivo, Abutilon theophrasti
Outline: as §1

[14] = test system: wheat; assay: Test B pre/postemergence wheat; format: in vivo, Triticum aestivum
Outline: as §1

[15] = test system: wild oat; assay: Test B pre/postemergence wild oat; format: in vivo, Avena fatua
Outline: as §1

[16] = test system: purple nutsedge; assay: Test B pre/postemergence purple nutsedge; format: in vivo, Cyperus rotundus
Outline: as §1

[17] = test system: rice; assay: Test B flood test rice; format: in vivo, Oryza sativa
Outline: (§2)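 Each value is a visual injury score relative to controls, with 10 meaning complete control and 0 no effect. Evaluation took place twelve to sixteen days after the 2-leaf-stage plants were treated and kept in the greenhouse.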

[18] = test system: smallflower flatsedge; assay: Test B flood test smallflower flatsedge; format: in vivo, Cyperus difformis
Outline: as §2

[19] = test system: duck salad; assay: Test B flood test duck salad; format: in vivo, Heteranthera limosa
Outline: as §2

[20] = test system: bamyardgrass; assay: Test B flood test barnyardgrass; format: in vivo, Echinochloa crus-galli
Outline: as §2

[21] = Postemergence, Rate 62 g/ha, scale 0 to 10, 0 is no effect, 10 is complete control
[22] = Postemergence, Rate 125 g/ha, scale of 0 to 10 where 0 is no effect and 10 is complete control
[23] = Postemergence, Rate 250 g/ha, scale of 0 to 10, 0 is no effect, 10 is complete control
[24] = Postemergence, Rate 500 g/ha, scale of 0 to 10 where 0 is no effect and 10 is complete control
[25] = Preemergence, Rate 62 g/ha, scale 0 to 10 (0 no effect, 10 complete control)
[26] = Preemergence, Rate 125 g/ha, scale of 0 to 10 where 0 is no effect and 10 is complete control
[27] = Preemergence, Rate 500 g/ha, scale of 0 to 10 where 0 is no effect and 10 is complete control
[28] = Rate 62 g/ha, flood test species, Pre-emergence, visual evaluation after twelve to sixteen days
[29] = Rate 125 g/ha, under heading Pre-emergence, flood test species, visual evaluation after twelve to sixteen days
[30] = Rate 250 g/ha, Pre-emergence (flood test species), scale 0 to 10, 0 is no effect, 10 is complete control
[31] = Rate 500 g/ha, Pre-emergence section of Table B, 0 to 10 scale (0 no effect, 10 complete control)

## C=C(C)Cn1c(=O)on(C(=O)N(c2ccccc2)C(C)C)c1=O [Compound 607]
[1]; Rate 62 g/ha, scale 0 to 10, 0 is no effect, 10 is complete control
  Plant response rating, Bedstraw: 0
[1]; Rate 125 g/ha, scale of 0 to 10 where 0 is no effect and 10 is complete control
  Plant response rating, Bedstraw: 0
[2]; [21]
  Plant response rating, Blackgrass: 0
[2]; [22]
  Plant response rating, Blackgrass: 4
[2]; [23]
  Blackgrass plant response rating: 6
[2]; [24]
  Plant response rating, Blackgrass: 7
[2]; [25]
  Blackgrass plant response rating: 4
[2]; [26]
  Blackgrass plant response rating: 7
[2]; Preemergence, Rate 250 g/ha
  Blackgrass plant response rating (0 to 10 scale): 8
[2]; [27]
  Blackgrass plant response rating: 9
[3]; [21]
  Plant response rating, B. signalgrass: 0
[3]; [22]
  Plant response rating, B. signalgrass: 0
[3]; [23]
  B. signalgrass plant response rating: 4
[3]; [24]
  Plant response rating, B. signalgrass: 7
[3]; [25]
  B. signalgrass plant response rating: 4
[3]; [26]
  B. signalgrass plant response rating: 7
[3]; Preemergence, Rate 250 g/ha
  B. signalgrass plant response rating (0 to 10 scale, 0 is no effect, 10 is complete control): 8
[3]; [27]
  B. signalgrass plant response rating: 8
[4]; [21]
  Plant response rating, Cocklebur: 0
[4]; [22]
  Plant response rating, Cocklebur: 0
[4]; [23]
  Cocklebur plant response rating: 0
[4]; [24]
  Plant response rating, Cocklebur: 0
[4]; [25]
  Cocklebur plant response rating: 0
[4]; [26]
  Cocklebur plant response rating: 0
[4]; Preemergence, Rate 250 g/ha
  Cocklebur plant response rating (0 to 10 scale): 0
[4]; [27]
  Plant response rating, Cocklebur: 0
[5]; [21]
  Plant response rating, Corn: 0
[5]; [22]
  Plant response rating, Corn: 0
[5]; [23]
  Corn plant response rating: 0
[5]; [24]
  Plant response rating, Corn: 2
[5]; [25]
  Corn plant response rating: 0
[5]; [26]
  Corn plant response rating: 0
[5]; Preemergence, Rate 250 g/ha
  Corn plant response rating (0 to 10 scale): 0
[5]; [27]
  Plant response rating, Corn: 6
[6]; [21]
  Plant response rating, Crabgrass: 5
[6]; [23]
  Crabgrass plant response rating: 8
[6]; [24]
  Plant response rating, Crabgrass: 9
[6]; [25]
  Crabgrass plant response rating: 7
[6]; [26]
  Crabgrass plant response rating: 8
[6]; [27]
  Plant response rating, Crabgrass: 9
[7]; [21]
  Plant response rating, Giant foxtail: 6
[7]; [22]
  Plant response rating, Giant foxtail: 6
[7]; [23]
  Giant foxtail plant response rating: 7
[7]; [24]
  Plant response rating, Giant foxtail: 9
[7]; [25]
  Giant foxtail plant response rating: 9
[7]; [26]
  Giant foxtail plant response rating: 10
[7]; [27]
  Plant response rating, Giant foxtail: 10
[8]; [21]
  Plant response rating, Morningglory: 6
[8]; [22]
  Plant response rating, Morningglory: 8
[8]; [23]
  Morningglory plant response rating: 8
[8]; [24]
  Plant response rating, Morningglory: 10
[8]; [25]
  Morningglory plant response rating: 0
[8]; [26]
  Morningglory plant response rating: 0
[8]; [27]
  Plant response rating, Morningglory: 0
[9]; [21]
  Plant response rating, Redroot pigweed: 0
[9]; [22]
  Plant response rating, Redroot pigweed: 0
[9]; [23]
  Redroot pigweed plant response rating: 0
[9]; [24]
  Plant response rating, Redroot pigweed: 5
[9]; [25]
  Redroot pigweed plant response rating: 4
[9]; [26]
  Redroot pigweed plant response rating: 7
[9]; [27]
  Plant response rating, Redroot pigweed: 10
[10]; [21]
  Plant response rating, Rape: 0
[10]; [22]
  Plant response rating, Rape: 0
[10]; [23]
  Rape plant response rating: 0
[10]; [24]
  Plant response rating, Rape: 0
[10]; [25]
  Rape plant response rating: 0
[10]; [26]
  Rape plant response rating: 6
[10]; [27]
  Plant response rating, Rape: 7
[11]; [21]
  Plant response rating, Soybean: 3
[11]; [22]
  Plant response rating, Soybean: 4
[11]; [23]
  Soybean plant response rating: 6
[11]; [25]
  Soybean plant response rating: 0
[11]; [26]
  Soybean plant response rating: 0
[11]; [27]
  Plant response rating, Soybean: 4
[12]; [21]
  Plant response rating, Sugarbeets: 0
[12]; [22]
  Plant response rating, Sugarbeets: 0
[12]; [23]
  Sugarbeets plant response rating: 0
[12]; [24]
  Plant response rating, Sugarbeets: 0
[12]; [25]
  Sugarbeets plant response rating: 0
[12]; [26]
  Sugarbeets plant response rating: 0
[12]; [27]
  Plant response rating, Sugarbeets: 5
[13]; [21]
  Plant response rating, Velvetleaf: 0
[13]; [22]
  Plant response rating, Velvetleaf: 0
[13]; [23]
  Velvetleaf plant response rating: 3
[13]; [24]
  Plant response rating, Velvetleaf: 5
[13]; [25]
  Velvetleaf plant response rating: 0
[13]; [26]
  Velvetleaf plant response rating: 3
[13]; [27]
  Plant response rating, Velvetleaf: 8
[14]; [21]
  Plant response rating, Wheat: 0
[14]; [22]
  Plant response rating, Wheat: 0
[14]; [23]
  Wheat plant response rating: 2
[14]; [24]
  Plant response rating, Wheat: 4
[14]; [25]
  Wheat plant response rating: 0
[14]; [26]
  Wheat plant response rating: 0
[14]; [27]
  Plant response rating, Wheat: 3
[15]; [21]
  Plant response rating, Wild oats: 0
[15]; [22]
  Plant response rating, Wild oats: 0
[15]; [23]
  Wild oats plant response rating: 0
[15]; [24]
  Plant response rating, Wild oats: 4
[15]; [25]
  Wild oats plant response rating: 0
[15]; [26]
  Wild oats plant response rating: 2
[15]; [27]
  Plant response rating, Wild oats: 6
[16]; [21]
  Plant response rating, Nutsedge: 0
[16]; [22]
  Plant response rating, Nutsedge: 0
[16]; [23]
  Nutsedge plant response rating: 0
[16]; [24]
  Plant response rating, Nutsedge: 7
[16]; [26]
  Nutsedge plant response rating: 0
[16]; [27]
  Plant response rating, Nutsedge: 0
[17]; [28]
  Plant response rating, Rice (0 to 10 scale, 0 is no effect, 10 is complete control): 0
[17]; [29]
  Rice plant response rating (0 to 10 scale, 0 is no effect, 10 is complete control): 0
[17]; [30]
  Rice plant response rating: 0
[17]; [31]
  Rice plant response rating: 0
[18]; [28]
  Plant response rating, S. Flatsedge (0 to 10 scale, 0 is no effect, 10 is complete control): 0
[18]; [29]
  S. Flatsedge plant response rating (0 to 10 scale, 0 is no effect, 10 is complete control): 0
[18]; [30]
  S. Flatsedge plant response rating: 0
[18]; [31]
  S. Flatsedge plant response rating: 0
[19]; [28]
  Plant response rating, Ducksalad (0 to 10 scale, 0 is no effect, 10 is complete control): 0
[19]; [29]
  Ducksalad plant response rating (0 to 10 scale, 0 is no effect, 10 is complete control): 0
[19]; [30]
  Ducksalad plant response rating: 0
[19]; [31]
  Ducksalad plant response rating: 0
[20]; [28]
  Plant response rating, Barnyardgrass (0 to 10 scale, 0 is no effect, 10 is complete control): 0
[20]; [29]
  Barnyardgrass plant response rating (0 to 10 scale, 0 is no effect, 10 is complete control): 0
[20]; [30]
  Barnyardgrass plant response rating: 0
[20]; [31]
  Barnyardgrass plant response rating: 0
